Laboratory results taken from article PMC11945486, “TAS1R2/TAS1R3 Single-Nucleotide Polymorphisms Affect Sweet Taste Receptor Activation by Sweeteners: The SWEET Project” (Nutrients, 2025).
Read-outs that look alike come from different tables or passages of the source. No end group written: not given here.

T1: human TAS1R2-WT/TAS1R3-R813K (Homo sapiens, UniProt Q7RTX0+Q8TE23, R813K)
T1 construct: expressed in transfected cells; host or cells: HEK293T stably expressing Gα16gust44
T1 sequence (Q8TE23 20-839): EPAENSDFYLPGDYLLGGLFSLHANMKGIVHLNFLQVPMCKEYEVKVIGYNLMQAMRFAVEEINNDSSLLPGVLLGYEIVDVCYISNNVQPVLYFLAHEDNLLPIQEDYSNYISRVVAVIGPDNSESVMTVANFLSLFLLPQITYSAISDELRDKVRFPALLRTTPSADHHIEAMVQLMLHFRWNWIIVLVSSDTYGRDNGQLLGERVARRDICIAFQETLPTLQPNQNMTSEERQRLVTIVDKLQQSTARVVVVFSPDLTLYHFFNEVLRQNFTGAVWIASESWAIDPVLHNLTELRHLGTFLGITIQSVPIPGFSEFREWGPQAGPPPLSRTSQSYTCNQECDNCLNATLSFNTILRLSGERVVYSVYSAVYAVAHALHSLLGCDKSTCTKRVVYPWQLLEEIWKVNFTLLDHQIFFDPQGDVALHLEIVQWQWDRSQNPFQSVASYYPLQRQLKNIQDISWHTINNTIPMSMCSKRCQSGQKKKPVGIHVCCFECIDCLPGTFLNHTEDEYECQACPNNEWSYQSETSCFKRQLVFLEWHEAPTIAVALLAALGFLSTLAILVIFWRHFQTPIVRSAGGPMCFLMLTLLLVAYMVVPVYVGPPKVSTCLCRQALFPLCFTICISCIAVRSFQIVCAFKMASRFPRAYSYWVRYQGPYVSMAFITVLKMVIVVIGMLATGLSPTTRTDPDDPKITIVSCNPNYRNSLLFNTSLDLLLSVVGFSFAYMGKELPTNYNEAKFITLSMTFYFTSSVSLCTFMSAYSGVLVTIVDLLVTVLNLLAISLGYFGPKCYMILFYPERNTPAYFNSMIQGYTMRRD
T1 sequence (Q7RTX0 21-852 R813K): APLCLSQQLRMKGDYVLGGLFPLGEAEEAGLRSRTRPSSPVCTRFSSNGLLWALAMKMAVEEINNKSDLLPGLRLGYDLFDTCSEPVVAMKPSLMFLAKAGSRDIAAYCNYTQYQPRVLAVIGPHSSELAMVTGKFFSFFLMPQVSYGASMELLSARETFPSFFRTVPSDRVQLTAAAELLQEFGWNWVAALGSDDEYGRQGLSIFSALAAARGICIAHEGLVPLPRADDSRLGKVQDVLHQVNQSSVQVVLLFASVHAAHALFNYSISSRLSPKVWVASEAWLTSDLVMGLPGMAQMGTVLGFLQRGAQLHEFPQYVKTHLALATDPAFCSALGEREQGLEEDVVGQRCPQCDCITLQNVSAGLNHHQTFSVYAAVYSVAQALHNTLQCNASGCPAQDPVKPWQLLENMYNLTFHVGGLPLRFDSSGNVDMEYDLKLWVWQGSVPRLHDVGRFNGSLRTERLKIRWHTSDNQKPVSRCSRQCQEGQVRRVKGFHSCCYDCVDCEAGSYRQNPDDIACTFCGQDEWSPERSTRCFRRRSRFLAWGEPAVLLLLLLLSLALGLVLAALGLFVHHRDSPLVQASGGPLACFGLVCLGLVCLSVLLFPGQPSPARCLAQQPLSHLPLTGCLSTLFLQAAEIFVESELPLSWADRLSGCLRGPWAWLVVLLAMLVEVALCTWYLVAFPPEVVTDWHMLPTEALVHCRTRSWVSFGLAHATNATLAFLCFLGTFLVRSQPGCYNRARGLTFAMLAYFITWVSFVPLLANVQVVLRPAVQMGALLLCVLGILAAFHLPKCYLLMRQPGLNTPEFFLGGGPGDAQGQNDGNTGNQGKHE

B1: thaumatin (protein)
chain: ATFEIVNRCSYTVWAAASKGDAALDAGGRQLNSGESWTINVEPGTKGGKIWARTDCYFDDSGSGICKTGDCGGLLRCKRFGRPPTTLAEFSLNQYGKDYIDISNIKGFNVPMDFSPTTRGCRGVRCAADIVGQCPAKLKAPGGGCNDACTVFQTSEYCCTTGKCGPTEYSRFFKRLCPDAFSYVLDKPTTVTCPGSSNYRVTFCPTA
modifications: Eight disulfides
notes: sweet-tasting plant protein, E957

Target: T1, human TAS1R2-WT/TAS1R3-R813K
Experiment: Calcium mobilisation assay, TAS1R2-WT with TAS1R3 variant R813K
Type: cell-based
Details: for Max ΔF/F0: maximal signal amplitude
Description: The coding sequences for TAS1R2 and TAS1R3 were commercially synthesised, and the human codon was optimised for expression in human cells. The coding sequences of human TAS1R2 and TAS1R3 were subcloned and inserted into the mammalian expression vectors pcDNA6/myc-HisA and pcDNA4/myc-HisA (Invitrogen; Thermo Fisher Scientific; Illkirch, France) between the EcoRI and NotI restriction sites, generating the plasmids pcDNA6-TAS1R2 and pcDNA4-TAS1R3, respectively. To increase protein expression in mammalian cells, an upstream start codon was used, which was a sequence called MAX, corresponding to the QBI SP163 element also described in pcDNA4-HisMax (Invitrogen; Thermo Fisher Scientific; Illkirch, France). To measure the expression level of the receptor by immunohistochemistry, we used the FLAG sequence ([…]) in the C-terminal position, which encodes the FLAG tag epitope. SNP variants of TAS1R2 and TAS1R3 were constructed based on […], respectively, using site-directed mutagenesis (Genewiz; Leipzig, Germany).
The HEK293T cells were kindly provided by Jay P. Slack (Givaudan Flavors Corporation; Cincinnati, OH, USA). HEK293T cells stably transfected with Gα16gust44 [43, 67] were seeded in poly-D-lysine-coated clear-bottom black 96-well plates (0.35 × 10^5 cells/well) in high-glucose DMEM supplemented with 2 mM GlutaMAX, 10% dialysed foetal bovine serum with penicillin/streptomycin and G418 (400 μg/mL) at 37 °C and 6.3% CO2 in a humidified atmosphere as previously reported. […] As a negative control, HEK293T cells were mock-transfected with the empty expression vector. After a further 24 h of incubation, the HEK293T cells were washed with C1 buffer (130 mM NaCl, 5 mM KCl, 10 mM HEPES pH 7.4 and 2 mM CaCl2). The 96-well plates containing the cells were then stimulated with sweet-tasting compounds. […] Different concentration ranges were tested depending on the sweet compound injected. The Ca^2+ changes were expressed as fractional changes in fluorescent light intensity: ΔF/F = (F − F0)/F0, where F was the fluorescent light intensity at each point, and F0 was the value of emitted fluorescent light prior to stimulus application. To calculate dose–response relationships, the changes in fluorescence upon stimulus application were averaged, mock-subtracted and baseline-corrected. The dose–response data obtained were adjusted using a 4-parameter logistic equation. The half-maximal effective concentrations (EC50 values) and maximal signal amplitudes were calculated using SigmaPlot software (version 15.0) (Systat Software; San Jose, CA, USA).
For in vitro calcium mobilisation assay performed on hTAS1R2-SNPs, hTAS1R3-SNPs and mTAS1R3-I60T, 6 to 7 concentrations were tested for each sweet compound, plus buffer alone. All concentration–receptor combinations were measured in duplicate, and each experiment was repeated at least 4 times (8 wells/concentration). Results were expressed for each concentration as ΔF/F mean ± SEM and represented as dose–response curves.

Molecule	R1 = Variant EC50/WT EC50	Max ΔF/F0	EC50 (read-out: EC50) [µM]	EC50 (brazzein) [mg/L]
CC1=CC(=O)NS(=O)(=O)O1 [Acesulfame K, acesulfame K]	0.7	0.40 ± 0.01	433 ± 34	–
O=S(=O)(O)NC1CCCCC1 [Cyclamate, cyclamate]	–	–	1330 ± 22	–
C[C@H](CC[C@@H](O[C@@H]1O[C@H](CO[C@@H]2O[C@H](CO)[C@@H](O)[C@H](O)[C@H]2O)[C@@H](O)[C@H](O)[C@H]1O[C@@H]1O[C@H](CO)[C@@H](O)[C@H](O)[C@H]1O)C(C)(C)O)[C@H]1CC[C@@]2(C)[C@@H]3CC=C4[C@@H](CC[C@H](O[C@@H]5O[C@H](CO[C@@H]6O[C@H](CO)[C@@H](O)[C@H](O)[C@H]6O)[C@@H](O)[C@H](O)[C@H]5O)C4(C)C)[C@]3(C)[C@H](O)C[C@]12C [Mogroside V, mogroside V]	0.7	1.14 ± 0.02	22 ± 1.3	–
COc1ccc(CCC(=O)c2c(O)cc(O[C@@H]3O[C@H](CO)[C@@H](O)[C@H](O)[C@H]3O[C@@H]3O[C@@H](C)[C@H](O)[C@@H](O)[C@H]3O)cc2O)cc1O [NHDC, neohesperidin dihydrochalcone]	0.7	1.00 ± 0.02	34.2 ± 15.2	–
COC(=O)[C@H](Cc1ccccc1)NC(=O)[C@H](CC(=O)O)NCCC(C)(C)C [Neotame]	0.8	0.79 ± 0.02	0.98 ± 0.07	–
C=C(C)[C@@H]1CC=C(/C=N/O)CC1 [Perillartine, perillartine]	0.8	1.28 ± 0.16	10.4 ± 3.6	–
C=C1C[C@@]23CC[C@H]4[C@@](C)(CCC[C@@]4(C)C(=O)O[C@@H]4O[C@H](CO)[C@@H](O)[C@H](O[C@@H]5O[C@H](CO)[C@@H](O)[C@H](O)[C@H]5O)[C@H]4O[C@@H]4O[C@H](CO)[C@@H](O)[C@H](O)[C@H]4O)[C@@H]2CC[C@]1(O[C@@H]1O[C@H](CO)[C@@H](O)[C@H](O[C@@H]2O[C@H](CO)[C@@H](O)[C@H](O)[C@H]2O)[C@H]1O[C@@H]1O[C@H](CO)[C@@H](O)[C@H](O)[C@H]1O)C3 [Rebaudioside M, rebaudioside M]	0.7	1.18 ± 0.06	27.4 ± 3.4	–
OC[C@H]1O[C@H](O[C@]2(CCl)O[C@H](CCl)[C@@H](O)[C@@H]2O)[C@H](O)[C@@H](O)[C@H]1Cl [Sucralose]	1.1	0.90 ± 0.03	120 ± 9	–
brazzein (QDKCKKVYENYPVSKCQLANQCNYDCKLDKHARSGECFYDEKRNLQCICDYCEY; ends and bridges not checked; cysteine pairing not given here; UniProt P56552 1-54, looked up) [sweet-tasting protein obtained by recombinant production using the yeast Pichia pastoris]	0.5	1.00 ± 0.05	–	58.0 ± 10.5
thaumatin	0.6	0.74 ± 0.04	–	–
B1	–	–	6.5 ± 0.9	–
